Data taken from PMC7821181, “MS Binding Assays for Glycine Transporter 2 (GlyT2) Employing Org25543 as Reporter Ligand” (Chemmedchem, 2020).
“Also recorded” adds a separate entry of the source. Read-outs that look alike come from different tables or passages of the source.

Experiments:
[1] = target: T1, hGlyT2 (Homo sapiens, UniProt Q9Y345); assay: GlyT2 MS Binding Assays: competition experiments with Org25543 as reporter ligand; details: read-out: Affinity, pKi (GlyT2 MS Binding Assays) (converted)
T1 construct: host or cells: HEK293 cells stably expressing hGlyT2; crude membrane fractions
T1 sequence (Q9Y345 1-797): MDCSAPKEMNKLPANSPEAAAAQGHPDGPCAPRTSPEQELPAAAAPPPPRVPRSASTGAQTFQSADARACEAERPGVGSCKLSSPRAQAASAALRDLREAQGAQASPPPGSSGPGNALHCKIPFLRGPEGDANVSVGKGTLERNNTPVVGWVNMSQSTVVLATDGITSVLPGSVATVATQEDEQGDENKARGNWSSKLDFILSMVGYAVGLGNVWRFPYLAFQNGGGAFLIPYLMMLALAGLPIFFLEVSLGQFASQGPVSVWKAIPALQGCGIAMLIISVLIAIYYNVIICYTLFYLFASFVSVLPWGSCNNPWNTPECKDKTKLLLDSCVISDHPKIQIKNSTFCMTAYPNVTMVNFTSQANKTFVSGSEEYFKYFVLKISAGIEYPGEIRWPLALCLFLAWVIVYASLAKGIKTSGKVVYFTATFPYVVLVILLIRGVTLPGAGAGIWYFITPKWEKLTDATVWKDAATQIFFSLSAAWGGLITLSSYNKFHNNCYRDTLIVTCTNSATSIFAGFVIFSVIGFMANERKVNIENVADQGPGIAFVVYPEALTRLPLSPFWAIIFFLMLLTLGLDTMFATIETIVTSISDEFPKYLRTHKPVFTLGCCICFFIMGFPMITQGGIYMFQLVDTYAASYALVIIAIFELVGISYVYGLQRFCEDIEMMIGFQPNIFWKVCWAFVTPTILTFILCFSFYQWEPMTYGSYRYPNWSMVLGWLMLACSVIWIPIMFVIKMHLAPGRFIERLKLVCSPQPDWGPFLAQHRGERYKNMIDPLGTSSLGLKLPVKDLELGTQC
Procedure: For the development of the desired competitive MS Binding Assay, the general concept of this kind of binding experiments was followed, in which the affinity of a test compound is delineated from its potency to compete out a reporter ligand, in our case Org25543, from its target binding site. Accordingly, the target protein was incubated with a defined concentration of the reporter ligand and increasing concentration of the individual test compound. In detail, the competitors were studied at seven different concentration levels, which covered about three concentration log units, whereas the concentration of Org25543 was fixed to 10 nM. Thereafter, via the developed LC‐ESI‐MS/MS method the amount of bound marker (total binding) was determined for the samples obtained from the individual incubation mixtures by the common workup for MS Binding Assays. Nonspecific binding was again determined in a set of analogous experiments in which GlyT2 membrane fractions were replaced by material subjected to a heat‐shock before. The resulting amount of Org25543 binding was defined as 0 % level of specific reporter ligand binding. […] The thus determined IC50 values were finally used to calculate the corresponding K i values by means of the Cheng‐Prusoff equation.
For preparation of GlyT2 membrane preparations HEK293 cells, stably expressing the hGlyT2 with a confluence ≥90 %, were used (kindly provided by AbbVie (Wiesbaden, Germany)). As cell culture medium DMEM containing 10 % fetal bovine serum (m/v), 100 U mL^−1 penicillin, 100 μg mL^−1 streptomycin and […] hygromycin B was used and the cells were cultivated in dishes (143 cm^2) at 37 °C and 8 % CO2. The cells were detached from the dish by aspirating the medium, adding 12 mL cell culture medium without hygromycin B and pipetting the medium several times until the cell lawn was completely detached. Subsequently, the cells were washed twice with PBS (5 min, 1600 rpm, Biofuge Stratos, rotor: #3047, Heraeus, Hanau, Germany) and afterwards homogenized in incubation buffer (10 mM HEPES, 120 mM NaCl, 2 mM KCl, 1 mM MgCl2, 1 mM CaCl2, pH 7.5) using a Polytron PTA 10 S (Kinematica Polytron, Littau‐Luzern, Switzerland). After homogenization aliquots of about 1 mg protein were frozen and stored at −80 °C. To determine the amount of protein in the membrane preparation (after treatment with 100 mM NaOH for 1 h) the protein determination according to Bradford ^[63] was applied, using bovine serum albumin as standard for calibration. At the day of the assay the membrane preparation was rapidly thawed, diluted in 20 mL incubation buffer and centrifuged at 4 °C for 20 min at 20 500 rpm (Sorvall Evolution RC, rotor: SS34, Thermo. Electron, Hanau, Germany). Finally, the resulting pellet was resuspended in 6 mL incubation buffer yielding a protein concentration of ∼0.1–0.2 mg mL^−1.
In polypropylene 96‐well plates (1.2 mL well volume, Sarstedt) membrane preparations (∼5–10 μg protein) were incubated in the presence of the reporter ligand and, if required, test compounds in incubation buffer (10 mM HEPES, 120 mM NaCl, 2 mM KCl, 1 mM MgCl2, 1 mM CaCl2, pH 7.5) in a total volume of 250 μL at 37 °C in a Julabo SW‐20 C water bath (Julabo GmbH, Seelbach, Germany) for 1 h (every sample was prepared in triplicates). After the incubation 210 μL aliquots of the binding samples were transferred by means of a 12‐channel pipette onto 96‐well glass fiber filter plates (AcroPrep Advance, glass fiber, 1.0 μm, 350 μL; Pall Corporation, Port Washington, NY, USA) where the incubation was terminated by vacuum filtration (the samples were transferred and the incubation was terminated row after row; Multi Well Plate Vacuum Manifold, Pall, Dreieich, Germany).

[2] = tested on: GlyT2; details: cited from earlier work; for IC50: read-out: Biological activity, IC50 (literature)
[3] = set-up: method as in PMID 23962079; details: after intravenous injection; cited from earlier work
[4] = target: T2, GlyT2 (Homo sapiens, UniProt Q9Y345); assay: influence of DMA on binding of Org25543 towards GlyT2 in competition experiments; details: DMA as competitor, up to a concentration of 2 % (215 mM)
T2 construct: host or cells: HEK293 cells stably expressing hGlyT2; crude membrane fractions
T2 sequence (Q9Y345 1-797): T1 sequence (Q9Y345 1-797)
Procedure: Investigating adsorption of Org25543 to polypropylene container material To investigate the adsorption ability of Org25543 to polypropylene container material dilution series of Org25543 were prepared in reaction tubes (1.5 mL, PP, Sarstedt, Nümbrecht, Germany) using different solvents or solvent mixtures, respectively (H2O, acetonitrile, H2O/DMSO (80:20, v/v), H2O/N,N-dimethylacetamide (DMA; 80:20, 90:10 and 95:5 v/v)). At least five concentration levels (10-fold concentration; 10 nM – 625 pM) were prepared in each solvent and these concentration levels were diluted again 1:10 (final concentrations of Org25543: 1 nM – 62.5 pM) in a mixture of ammonium bicarbonate buffer (5 mM, pH7.8) and acetonitrile containing 111 pM [2H7]Org25543 (final concentration: 100 pM) that the final sample solvent equals the mobile phase.
Then the samples were subjected to LC-ESI-MS/MS quantification and the obtained peak area ratios of Org25543 and [ 2H7]Org25543 were plotted against the concentration of Org25543. By using linear regression analysis calibration curves were obtained for all dilution series and were compared to each other. The calibration curves are depicted in Figure S 4.
Investigating the influence of N,N-dimethylacetamide (DMA) on the binding of Org25543 towards GlyT2 in competition experiments […]

[5] = ref 18; cited from earlier work

Row | SMILES | Ki [1] [nM] | IC50 ([2]; ref 11, 40) [nM] | fraction crossing the blood‐brain‐barrier [3] [%] | influence on Org25543 binding at GlyT2, in words [4] | pIC50 (literature; calcd) ([2]; calcd from literature IC50, ref 18) | IC50 ([2]; ref 18) [nM] | critical micelle concentration (CMC) [5] [µM]
1 | N[C@@H](COC(c1cccc(F)c1)c1ccccc1OCc1ccccc1)C(=O)O (some centres unmarked) [ALX1393, O‐[(2‐benzyloxyphenyl‐3‐flurophenyl)methyl]‐L‐serine] | 1170 | 26 to 100 | 5 | – | – | – | –
2 | CC(=O)N(C)C [DMA, N,N‐dimethylacetamide] | – | – | – | no influence on the Org25543 binding at GlyT2; also recorded: not effect Org25543 binding | – | – | –
3 | CCCCCCCC/C=C\CCCCCCCC(=O)O[C@H](CC(=O)[O-])C[N+](C)(C)C [oleoyl‐L‐carnitine, Oleoyl‐L‐carnitine] | 2630 | – | – | – | 6.47 | 340 | 7.4
